According to patent publication US11642336B2, “5-HT2A agonists for use in treatment of depression” (priority 2019, dated 2023):
Where a name gives a salt, the structure may show the parent alone. Read-outs that look alike come from different tables or passages of the source. Marks after values point to notes of the source that are not given here.

How the values were obtained:
Format in all cases: cell-based
5-HT2B = 5-HT2B (Homo sapiens (Human), UniProt P41595); experiment: IP assay (Eurofins, IP1 HTRF), HEK293 cells; settings: for 5-HT2B Rmax: % of Rmax of 5-HT; for EC50: duplicate determinations, read-out: 5-HT2B EC50;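 on all read-outs here: agonist effect read as cellular IP1 production by HTRF using a europium cryptate anti-IP1 antibody donor and D2-labeled IP1 acceptor, eight compound concentrations in each cell line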
Method: The agonist properties of the compounds were characterized at HEK293 cell lines expressing the human 5-HT2A, human 5-HT2B or human 5-HT2C receptors in an IP assay essentially as previously described.^19 The testing was performed by Eurofins. In the assay, the agonist activity of the compound at the receptors is investigated by measuring its effect on IP1 production in the cell using the Homogeneous Time Resolved Fluorescence (HTRF) detection method. […] Following incubation, the cells were lysed, and the fluorescence acceptor (D2-labeled IP1) and fluorescence donor (anti-IP1 antibody labeled with europium cryptate) were added. […] The test compounds were characterized in eight different concentrations in duplicate at each of the three cell lines.

human 5-HT2A [1] = target: T1, human 5-HT2A (Homo sapiens (Human), UniProt P28223); experiment: cell-based; settings: IP assay; for 5-HT2A Rmax: % of Rmax of 5-HT; for EC50: duplicate determinations
5-HT2C = 5-HT2C (Homo sapiens (Human), UniProt P28335); experiment: Ca2+/Fluo-4 assay, stable h5-HT2C-HEK293 cell line; settings: for EC50: agonist potency, n = 3-4; for 5-HT2C Rmax ± S.E.M: % of the Rmax of 5-HT; for 5-HT2C agonist activity (n.a./w.a.): tested up to 50 μM;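 on all read-outs here: Agonist-induced intracellular Ca2+ rise read by Fluo-4 fluorescence in HEK293 cells stably expressing the human 5-HT2C receptor, each compound run in duplicate on three or more occasions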
Method: The functional properties of the compounds were characterised at stable HEK293 cell lines stably expressing the human 5-HT2A receptor or human 5-HT2C receptor in the Ca^2+/Fluo-4 assay essentially as previously described.^10 Briefly, the cells were split into poly-D-lysine-coated black 96-well plates with clear bottoms (6×10^4 cells/well). The following day the culture medium was aspirated and the cells were incubated in 50 μl assay buffer [Hanks Buffered Saline Solution containing 20 mM HEPES, 1 mM CaCl2, 1 mM MgCl2, 2.5 mM probenecid, pH 7.4] supplemented with 6 mM Fluo-4/AM at 37° C. for 1 hour. Next, the buffer was aspirated, the cells were washed once with 100 μl assay buffer, and then 100 μl assay buffer was added to the cells (in the antagonist experiments the compound was added at this point). […] The compounds were characterized in duplicate at least three times at each cell line.

human 5-HT2A [2] = target: T1, human 5-HT2A; experiment: cell-based; settings: for EC50: agonist potency, n = 3-4; for Selectivity EC50 5-HT2C/EC50 5-HT2A: Ca2+/Fluo-4 assay, bounds are conservative estimates
[3] = read-out: 5-HT2A [pEC50 ± S.E.M.] (converted)
[4] = read-out: 5-HT2C [pEC50 ± S.E.M.] (converted)

5-HT2B, sequence (P41595 whole entry, looked up): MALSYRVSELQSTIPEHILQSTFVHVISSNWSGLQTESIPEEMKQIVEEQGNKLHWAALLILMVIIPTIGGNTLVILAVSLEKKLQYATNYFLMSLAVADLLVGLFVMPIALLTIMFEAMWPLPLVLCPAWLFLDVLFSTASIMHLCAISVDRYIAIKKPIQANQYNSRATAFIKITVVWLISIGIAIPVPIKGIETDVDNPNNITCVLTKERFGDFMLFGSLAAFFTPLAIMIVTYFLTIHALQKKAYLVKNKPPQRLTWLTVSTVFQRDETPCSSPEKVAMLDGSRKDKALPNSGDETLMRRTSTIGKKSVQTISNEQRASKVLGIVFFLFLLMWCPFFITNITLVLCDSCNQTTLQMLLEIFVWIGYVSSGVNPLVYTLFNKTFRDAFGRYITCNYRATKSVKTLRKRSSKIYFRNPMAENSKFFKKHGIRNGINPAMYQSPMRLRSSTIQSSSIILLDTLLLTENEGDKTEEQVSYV
5-HT2C, sequence (P28335 whole entry, looked up): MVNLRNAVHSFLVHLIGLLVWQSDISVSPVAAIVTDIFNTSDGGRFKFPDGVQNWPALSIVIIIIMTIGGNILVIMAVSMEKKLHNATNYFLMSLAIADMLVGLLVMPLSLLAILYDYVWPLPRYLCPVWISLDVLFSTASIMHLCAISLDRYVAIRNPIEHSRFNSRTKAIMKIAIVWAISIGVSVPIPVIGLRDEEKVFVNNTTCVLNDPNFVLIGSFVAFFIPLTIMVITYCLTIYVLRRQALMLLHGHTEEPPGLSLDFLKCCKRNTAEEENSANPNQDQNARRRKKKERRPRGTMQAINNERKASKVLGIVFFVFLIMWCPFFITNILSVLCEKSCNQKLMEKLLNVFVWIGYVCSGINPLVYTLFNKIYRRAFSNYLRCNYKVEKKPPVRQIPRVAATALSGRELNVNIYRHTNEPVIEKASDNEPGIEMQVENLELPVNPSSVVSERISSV

Row | SMILES | 5-HT2B Rmax (5-HT2B) [%] | EC50 (5-HT2B) [nM] | 5-HT2A Rmax (human 5-HT2A [1]) [%] | EC50 (human 5-HT2A [1]) [nM] | EC50 (5-HT2C; read-out: 5-HT2C EC50) [nM] | EC50 (human 5-HT2A [2]; read-out: 5-HT2A EC50) [nM] | 5-HT2A Rmax ± S.E.M (human 5-HT2A [2]; % of the Rmax of 5-HT) [%] | EC50 (human 5-HT2A [2]; [3]) [nM] | Selectivity EC50 5-HT2C/EC50 5-HT2A (human 5-HT2A [2]) | other results
1 | COc1cc([C@@H]2CCCNC2)c(OC)cc1Br [Compound 12, (S)-3-(4-bromo-2,5-dimethoxyphenyl)piperidine] | 48 | 190 | 70 | 250 | > 50000 | 69 |  |  |  | 
2 | CCOc1cc(C(F)(F)F)c(OC)cc1[C@@H]1CCCNC1.Cl [Compound 30, (S)-3-(2-ethoxy-5-methoxy-4-(trifluoromethyl)phenyl)piperidine hydrochloride] | 26 | 1200 | 35 | 140 |  |  | 40 ± 3 | 38 |  | 
3 | COc1cc([C@@H]2CCCNC2)c(OC)cc1C.Cl [Compound 24, (S)-3-(2,5-dimethoxy-4-methylphenyl)piperidine hydrochloride] | 38 | 360 | 67 | 560 |  | 100 |  | 105 |  | 
4 | COc1cc(CC(C)N)c(OC)cc1I (centres unmarked) [drawing 22, reference compound] |  |  |  |  |  |  |  |  |  | EC50 (5-HT2C; 5-HT2C [pEC50 ± S.E.M.]): 3.39 nM; 5-HT2C Rmax ± S.E.M (5-HT2C): 83 ± 8%; 5-HT2A Rmax ± S.E.M (human 5-HT2A [2]): 88 ± 7%
5 | CCc1cc(OC)c([C@@H]2CCCNC2)cc1OC.Cl [Compound 32, (S)-3-(4-ethyl-2,5-dimethoxyphenyl)piperidine hydrochloride] | 54 | 280 | 85 | 110 |  |  | 79 ± 4 | 40.7 |  | 
6 | COc1cc([C@H]2CCCNC2)c(OC)cc1Br [Compound 11, (R)-3-(4-bromo-2,5-dimethoxyphenyl)piperidine] |  |  |  |  | 1900 | 370 |  |  |  | 
7 | CCN1CCC[C@@H](c2cc(OC)c(C(F)(F)F)cc2OC)C1 [Compound 59, (S)-3-(2,5-dimethoxy-4-(trifluoromethyl)phenyl)-1-ethylpiperidine] |  |  |  |  |  | 1500 | 44 ± 3 |  | >30^e | 5-HT2C agonist activity (n.a./w.a.) (5-HT2C): w.a.; loss of potency at 5-HT2A compared to compound 8 (factor) (human 5-HT2A [2]; nitrogen substituents (tertiary amines)): ~80
8 | COc1cc(C(F)(F)F)c(F)cc1[C@H]1CCCNC1.Cl [Compound 50, (R)-3-(5-fluoro-2-methoxy-4-(trifluoromethyl)phenyl)piperidine hydrochloride] |  |  |  |  | 1800 | 640 | 78 ± 6 |  | 2.8 | 5-HT2C Rmax ± S.E.M (5-HT2C): 40 ± 8%; EC50 (5-HT2C; [4]): 1780 nM
9 | COc1cc(C(F)(F)F)c(OC)cc1[C@@H]1CCNC1 [Compound 6, (S)-3-(2,5-dimethoxy-4-(trifluoromethyl)phenyl)pyrrolidine] |  |  |  |  |  | 5.4 | 35 ± 4 |  | 3.5 | 5-HT2C Rmax ± S.E.M (5-HT2C): 28 ± 2%; EC50 (5-HT2C; [4]): 19.1 nM
10 | CCSc1cc(OC)c([C@H]2CCCNC2)cc1OC [Compound 27, (R)-3-(2,5-dimethoxy-4-(ethylthio)phenyl)piperidine hydrochloride] |  |  |  |  | 780 | 190 |  | 186 |  | 
11 | COc1cc([C@H]2CCCNC2)c(OC)cc1C [Compound 23, (R)-3-(2,5-dimethoxy-4-methylphenyl)piperidine hydrochloride] |  |  |  |  | 1200 | 260 |  | 263 |  | 
12 | COc1cc([C@@H]2CCCNC2)c(OCF)cc1C(F)(F)F [Compound 39, (S)-3-(2-(fluoromethoxy)-5-methoxy-4-(trifluoromethyl)phenyl)piperidine] | 54 | 1100 | 60 | 300 |  | 150 | 40 ± 5 |  | >300^e | Selectivity EC50 5-HT2B/EC50 5-HT2A (5-HT2B; bounds are conservative estimates): 3.6
13 | CCN1CCC[C@H](c2cc(OC)c(C(F)(F)F)cc2OC)C1 [Compound 58, (R)-3-(2,5-dimethoxy-4-(trifluoromethyl)phenyl)-1-ethylpiperidine] |  |  |  |  |  |  |  |  |  | 5-HT2C agonist activity (n.a./w.a.) (5-HT2C): w.a.; 5-HT2A agonist activity (n.a./w.a.) (human 5-HT2A [2]; tested up to 50 μM): w.a. [@ 2-10-50
14 | CCSc1cc([C@H]2CCCNC2)c(OC)cc1C(F)(F)F.Cl [Compound 46, (R)-3-(2-methoxy-5-(ethylthio)-4-(trifluoromethyl)phenyl)piperidine hydrochloride] |  |  |  |  | 1100 | 150 | 97 ± 2 | 145 | 7.4 | 5-HT2C Rmax ± S.E.M (5-HT2C): 53 ± 5%; EC50 (5-HT2C; [4]): 1070 nM
15 | COc1cc([C@H]2CCCNC2)c(OC)cc1Cl [Compound 9, (R)-3-(4-Chloro-2,5-dimethoxyphenyl)piperidine] |  |  |  |  | 1800 | 690 |  |  |  | EC50 (5-HT2C; [4]): 1780 nM
